We go through 3 compounds from PMC8802617 (Bioorganic & medicinal chemistry, 2018).

For orientation: Ki means the equilibrium dissociation constant of an inhibitor or competing ligand from its target. Usually EC50 stands for the concentration that produces a half-maximal response. The low end stands for a more potent agent, the high end for a less potent agent.

Experiment [1] has as its target T1, MOR (Homo sapiens, UniProt P35372). It is filed as binding. To be noted: membranes from transient HEK cells.
For experiment [2], the target named is T1, MOR. As to the kind of experiment: Split luciferase cAMP assay, agonist mode, HEK cells stably expressing MOR. It is filed as cell-based. Background: cAMP levels reflect the balance of adenylyl cyclase and phosphodiesterase activity.
In experiment [3] the target is T2, KOR (Homo sapiens, UniProt P41145). The experiment can be described thus: cell-based.
Experiment [4] deals with T3, DOR (Homo sapiens, UniProt P41143). As to the kind of experiment: Split luciferase cAMP assay, agonist mode, HEK cells stably expressing DOR. It is filed as cell-based.
The target in experiment [5] is T2, KOR. The experiment can be described thus: biochemical. The format is binding.
The target of experiment [6] is T3, DOR. It is filed as binding. To be noted: membranes from transient HEK cells.
The target of experiment [7] is T1, MOR. To be noted: read-out: MOR Ki; literature value ref 16; cited from earlier work.
For experiment [8], the target named is T2, KOR. Conditions: read-out: KOR Ki, cited from earlier work.
Experiment [9] deals with T3, DOR. To be noted: read-out: DOR Ki; literature value ref 16; cited from earlier work.

Read-outs that look alike come from different tables or passages of the source. *1 amine or outer side, *2 acyl side, *3 side chain or, on linkers, in order; H or OH if unused. Where a SMILES comes first, the peptide text is derived from it. Bridges are numbered along the chain shown (N, C = ends). Roman numbers before positions name the chains, in order. [ ]: non-standard residue; d: D form. Piperazine(1,4-diyl) = C1CN([*:2])CCN1[*:1]; dPen = CC(C)(S)[C@@H](N)C(=O)O

T2 sequence (P41145 whole entry): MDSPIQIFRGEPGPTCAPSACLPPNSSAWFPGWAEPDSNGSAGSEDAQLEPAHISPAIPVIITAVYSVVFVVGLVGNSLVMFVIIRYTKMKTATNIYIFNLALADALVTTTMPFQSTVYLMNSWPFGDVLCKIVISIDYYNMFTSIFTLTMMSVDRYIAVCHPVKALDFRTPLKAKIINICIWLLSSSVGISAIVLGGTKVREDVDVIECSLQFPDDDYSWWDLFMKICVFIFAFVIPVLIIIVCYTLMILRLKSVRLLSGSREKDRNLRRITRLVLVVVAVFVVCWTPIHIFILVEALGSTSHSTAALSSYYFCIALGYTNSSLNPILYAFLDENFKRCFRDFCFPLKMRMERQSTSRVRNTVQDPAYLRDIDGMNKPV
T3 sequence (P41143 whole entry): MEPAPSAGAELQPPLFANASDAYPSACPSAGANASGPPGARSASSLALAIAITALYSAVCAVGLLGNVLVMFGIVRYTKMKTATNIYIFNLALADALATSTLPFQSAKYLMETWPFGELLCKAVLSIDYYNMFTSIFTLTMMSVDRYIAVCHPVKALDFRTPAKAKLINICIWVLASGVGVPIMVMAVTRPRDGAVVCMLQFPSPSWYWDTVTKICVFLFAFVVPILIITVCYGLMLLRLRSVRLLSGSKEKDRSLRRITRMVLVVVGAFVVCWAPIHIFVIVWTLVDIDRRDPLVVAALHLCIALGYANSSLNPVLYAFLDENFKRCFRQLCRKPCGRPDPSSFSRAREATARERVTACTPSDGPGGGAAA
T1 sequence (P35372 whole entry): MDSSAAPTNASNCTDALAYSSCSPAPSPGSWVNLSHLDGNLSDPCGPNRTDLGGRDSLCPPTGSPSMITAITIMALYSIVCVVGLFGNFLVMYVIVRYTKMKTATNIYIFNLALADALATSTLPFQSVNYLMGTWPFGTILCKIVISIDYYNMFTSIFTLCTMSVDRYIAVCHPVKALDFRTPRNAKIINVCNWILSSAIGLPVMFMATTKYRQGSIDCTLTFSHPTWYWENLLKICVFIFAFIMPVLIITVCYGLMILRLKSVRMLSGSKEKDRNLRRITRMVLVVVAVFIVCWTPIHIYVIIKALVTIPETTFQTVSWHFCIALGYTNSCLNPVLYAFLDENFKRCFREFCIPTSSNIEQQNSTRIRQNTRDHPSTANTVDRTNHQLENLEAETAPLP

For `CC1(C)SSC(C)(C)[C@@H](NC(=O)[C@@H](N)Cc2ccc(O)cc2)C(=O)NCC(=O)N[C@@H](Cc2ccccc2)C(=O)N2CCN(CC2)C(=O)[C@H](Cc2ccccc2)NC(=O)CNC(=O)[C@@H]1NC(=O)[C@@H](N)Cc1ccc(O)cc1` [ligand 3, c^2,2′(Tyr-DPen-Gly-Phe)2-piperazine] (I: H-Y[dPen]GF / II: H-Y[dPen]GF; disulfide I:2-II:2; linker I:C-II:C via Piperazine(1,4-diyl)), the Ki was 2.9 nM on MOR [1] (MOR [3H]DAMGO Ki); 2.88 nM on MOR [1] (MOR [3H]DAMGO pKi); 5.6 nM at KOR [5] (KOR [3H]U69593 Ki); 5.62 nM at KOR [5] (KOR [3H]U69593 pKi); 1.9 nM at DOR [6] (DOR [3H]DADLE Ki); 2 nM at DOR [6] (DOR [3H]DADLE pKi). Further, the EC50 on MOR [2] (MOR EC50, agonist mode) is 191 nM; on MOR [2] (MOR pEC50, agonist mode), 191 nM; at KOR [3] (KOR EC50), 269 nM; on KOR [3] (KOR pEC50), 269 nM; on DOR [4] (DOR EC50, agonist mode), 269 nM; on DOR [4] (DOR pEC50, agonist mode), 269 nM.

As to “c^2,2′(Tyr-DPen-Gly-Phe-NH-)2 (YCGF) [compound 6]”, the inhibitory constant (Ki) in the experiment with MOR [7] was 5.2 ± 0.5 nM; in the experiment with KOR [8] (literature value ref 16), 257 ± 25 nM; with DOR [9], 1.9 ± 0.2 nM.

Consider Biphalin, for which the Ki with KOR [8] (literature value ref 6) was 270 ± 15 nM.
